# Results taken from ChEMBL document CHEMBL4393664, “2,4-Disubstituted quinazolines targeting breast cancer cells via EGFR-PI3K” (Eur J Med Chem, 2019).
# pIC50: −log10 of the molar value. The source made the active and inactive calls. The rule behind the calls is not given here.
# Columns and labels:
# MDA-MB-231 [1] = test: Antiproliferative activity against human MDA-MB-231 cells assessed as reduction in cell viability after 24 to 72 hrs by MTT assay; assay type: functional, cell-based
# MDA-MB-231 [2] = test: Induction of apoptosis in human MDA-MB-231 cells assessed as increase in nuclear lysis up to 8 uM after 48 hrs by DAPI staining-based fluorescence microscopic method; assay type: functional, cell-based
# MCF7 [3] = test: Induction of apoptosis in human MCF7 cells assessed as early apoptotic cells at 4 uM after 48 hrs by Annexin-V-FITC/propidium iodide staining based flow cytometry (reference value: 3.05%); assay type: functional
# [4] = target: Epidermal growth factor receptor (Homo sapiens) (UniProt P00533); test: Inhibition of EGFR in human MDA-MB-231 cells assessed as reduction in phosphorylated PI3K expression after 8 hrs by Western blot analysis; assay type: cell-based
# MCF7 [5] = test: Induction of apoptosis in human MCF7 cells assessed as increase in ROS generation up to 8 uM after 48 hrs by DHE dye-based fluorescence microscopic analysis; assay type: functional, cell-based
# MCF7 [6] = test: Inhibition of colony formation in human MCF7 cells at 9 uM after 7 days by crystal violet staining based microscopic analysis; assay type: functional, cell-based
# MCF7 [7] = test: Induction of apoptosis in human MCF7 cells assessed as downregulation of Bcl-2 protein expression at 3 to 12 uM after 48 hrs by Western blot analysis; assay type: functional, cell-based
# MDA-MB-231 [8] = test: Induction of apoptosis in human MDA-MB-231 cells assessed as increase in Bax expression levels at 3 to 12 uM after 48 hrs by Western blot analysis; assay type: functional, cell-based
# [9] = target: Epidermal growth factor receptor (Homo sapiens) (UniProt P00533); test: Inhibition of EGFR phosphorylation at Y1045 residues in human MDA-MB-231 cells after 8 hrs by Western blot analysis; assay type: cell-based
# HGC-27 = test: Cytotoxicity against human HGC27 cells assessed as reduction in cell viability after 72 hrs by MTT assay; assay type: functional, cell-based; details: HGC-27, 72 h
# MCF7 [10] = test: Induction of apoptosis in human MCF7 cells assessed as viable cells at 4 uM after 48 hrs by Annexin-V-FITC/propidium iodide staining based flow cytometry (reference value: 91.1%); assay type: functional; details: MCF7, 48 h, read-out: Activity
# MCF7 [11] = test: Induction of apoptosis in human MCF7 cells assessed as late apoptotic cells at 6 uM after 48 hrs by Annexin-V-FITC/propidium iodide staining based flow cytometry (reference value: 4.28%); assay type: functional
# [12] = target: Epidermal growth factor receptor (Homo sapiens) (UniProt P00533); test: Inhibition of EGFR in human MDA-MB-231 cells assessed as reduction in phosphorylated AKT expression after 8 hrs by Western blot analysis; assay type: cell-based
# MCF7 [13] = test: Cell cycle arrest in human MCF7 cells assessed as accumulation at G1 phase at 12 uM after 24 hrs by propidium iodide/RNase A staining-based flow cytometric analysis (reference value: 52.21%); assay type: functional
# [14] = target: Epidermal growth factor receptor (Homo sapiens) (UniProt P00533); test: Inhibition of EGFR in human MCF7 cells assessed as reduction in phosphorylated AKT expression after 8 hrs by Western blot analysis; assay type: cell-based
# MDA-MB-231 [15] = test: Induction of apoptosis in human MDA-MB-231 cells assessed as necrotic cells at 2 uM after 48 hrs by Annexin-V-FITC/propidium iodide staining based flow cytometry (reference value: 1.21%); assay type: functional
# MDA-MB-231 [16] = test: Cell cycle arrest in human MDA-MB-231 cells assessed as accumulation at S phase at 6 uM after 24 hrs by propidium iodide/RNase A staining-based flow cytometric analysis (reference value: 23.07%); assay type: functional
# MDA-MB-231 [17] = test: Induction of apoptosis in human MDA-MB-231 cells assessed as early apoptotic cells at 2 uM after 48 hrs by Annexin-V-FITC/propidium iodide staining based flow cytometry (reference value: 4.33%); assay type: functional
# MCF7 [18] = test: Induction of apoptosis in human MCF7 cells assessed as increase in Bax expression levels at 3 to 12 uM after 48 hrs by Western blot analysis; assay type: functional, cell-based
# MDA-MB-231 [19] = test: Induction of apoptosis in human MDA-MB-231 cells assessed as increase in ROS generation up to 8 uM after 48 hrs by DHE dye-based fluorescence microscopic analysis; assay type: functional, cell-based
# [20] = target: Epidermal growth factor receptor (Homo sapiens) (UniProt P00533); test: Inhibition of EGFR phosphorylation at Y992 residues in human MCF7 cells after 8 hrs by Western blot analysis; assay type: cell-based
# MCF7 [21] = test: Cytotoxicity against human MCF7 cells assessed as reduction in cell viability after 72 hrs by MTT assay; assay type: functional, cell-based; details: MCF7, 72 h
# MCF7 [22] = test: Induction of apoptosis in human MCF7 cells assessed as necrotic cells at 6 uM after 48 hrs by Annexin-V-FITC/propidium iodide staining based flow cytometry (reference value: 1.57%); assay type: functional
# MCF7 [23] = test: Induction of apoptosis in human MCF7 cells assessed as increase in P53 expression at 3 to 12 uM after 48 hrs by Western blot analysis; assay type: functional, cell-based
# MCF7 [24] = test: Cell cycle arrest in human MCF7 cells assessed as accumulation at S phase at 3 uM after 24 hrs by propidium iodide/RNase A staining-based flow cytometric analysis (reference value: 17.17%); assay type: functional
# MCF7 [25] = test: Antiproliferative activity against human MCF7 cells assessed as reduction in cell viability after 24 to 72 hrs by MTT assay; assay type: functional, cell-based
# MCF7 [26] = test: Cell cycle arrest in human MCF7 cells assessed as accumulation at G2 phase at 12 uM after 24 hrs by propidium iodide/RNase A staining-based flow cytometric analysis (reference value: 30.62%); assay type: functional
# [27] = target: Epidermal growth factor receptor (Homo sapiens) (UniProt P00533); test: Inhibition of EGFR in human MCF7 cells assessed as reduction in phosphorylated PI3K expression after 8 hrs by Western blot analysis; assay type: cell-based
# MDA-MB-231 [28] = test: Induction of apoptosis in human MDA-MB-231 cells assessed as necrotic cells at 4 uM after 48 hrs by Annexin-V-FITC/propidium iodide staining based flow cytometry (reference value: 1.21%); assay type: functional
# MDA-MB-231 [29] = test: Induction of apoptosis in human MDA-MB-231 cells assessed as late apoptotic cells at 6 uM after 48 hrs by Annexin-V-FITC/propidium iodide staining based flow cytometry (reference value: 2.38%); assay type: functional
# MDA-MB-231 [30] = test: Induction of apoptosis in human MDA-MB-231 cells assessed as viable cells at 4 uM after 48 hrs by Annexin-V-FITC/propidium iodide staining based flow cytometry (reference value: 92.1%); assay type: functional; details: MDA-MB-231, 48 h, read-out: Activity
# MDA-MB-231 [31] = test: Induction of apoptosis in human MDA-MB-231 cells assessed as necrotic cells at 6 uM after 48 hrs by Annexin-V-FITC/propidium iodide staining based flow cytometry (reference value: 1.21%); assay type: functional
# MDA-MB-231 [32] = test: Induction of apoptosis in human MDA-MB-231 cells assessed as viable cells at 6 uM after 48 hrs by Annexin-V-FITC/propidium iodide staining based flow cytometry (reference value: 92.1%); assay type: functional; details: MDA-MB-231, 48 h, read-out: Activity
# MDA-MB-231 [33] = test: Cell cycle arrest in human MDA-MB-231 cells assessed as accumulation at G2 phase at 3 uM after 24 hrs by propidium iodide/RNase A staining-based flow cytometric analysis (reference value: 27.76%); assay type: functional
# MDA-MB-231 [34] = test: Cell cycle arrest in human MDA-MB-231 cells assessed as accumulation at G1 phase at 12 uM after 24 hrs by propidium iodide/RNase A staining-based flow cytometric analysis (reference value: 49.17%); assay type: functional
# MDA-MB-231 [35] = test: Cell cycle arrest in human MDA-MB-231 cells assessed as accumulation at S phase at 12 uM after 24 hrs by propidium iodide/RNase A staining-based flow cytometric analysis (reference value: 23.07%); assay type: functional
# Chain of Epidermal growth factor receptor (Homo sapiens) (P00533 whole entry): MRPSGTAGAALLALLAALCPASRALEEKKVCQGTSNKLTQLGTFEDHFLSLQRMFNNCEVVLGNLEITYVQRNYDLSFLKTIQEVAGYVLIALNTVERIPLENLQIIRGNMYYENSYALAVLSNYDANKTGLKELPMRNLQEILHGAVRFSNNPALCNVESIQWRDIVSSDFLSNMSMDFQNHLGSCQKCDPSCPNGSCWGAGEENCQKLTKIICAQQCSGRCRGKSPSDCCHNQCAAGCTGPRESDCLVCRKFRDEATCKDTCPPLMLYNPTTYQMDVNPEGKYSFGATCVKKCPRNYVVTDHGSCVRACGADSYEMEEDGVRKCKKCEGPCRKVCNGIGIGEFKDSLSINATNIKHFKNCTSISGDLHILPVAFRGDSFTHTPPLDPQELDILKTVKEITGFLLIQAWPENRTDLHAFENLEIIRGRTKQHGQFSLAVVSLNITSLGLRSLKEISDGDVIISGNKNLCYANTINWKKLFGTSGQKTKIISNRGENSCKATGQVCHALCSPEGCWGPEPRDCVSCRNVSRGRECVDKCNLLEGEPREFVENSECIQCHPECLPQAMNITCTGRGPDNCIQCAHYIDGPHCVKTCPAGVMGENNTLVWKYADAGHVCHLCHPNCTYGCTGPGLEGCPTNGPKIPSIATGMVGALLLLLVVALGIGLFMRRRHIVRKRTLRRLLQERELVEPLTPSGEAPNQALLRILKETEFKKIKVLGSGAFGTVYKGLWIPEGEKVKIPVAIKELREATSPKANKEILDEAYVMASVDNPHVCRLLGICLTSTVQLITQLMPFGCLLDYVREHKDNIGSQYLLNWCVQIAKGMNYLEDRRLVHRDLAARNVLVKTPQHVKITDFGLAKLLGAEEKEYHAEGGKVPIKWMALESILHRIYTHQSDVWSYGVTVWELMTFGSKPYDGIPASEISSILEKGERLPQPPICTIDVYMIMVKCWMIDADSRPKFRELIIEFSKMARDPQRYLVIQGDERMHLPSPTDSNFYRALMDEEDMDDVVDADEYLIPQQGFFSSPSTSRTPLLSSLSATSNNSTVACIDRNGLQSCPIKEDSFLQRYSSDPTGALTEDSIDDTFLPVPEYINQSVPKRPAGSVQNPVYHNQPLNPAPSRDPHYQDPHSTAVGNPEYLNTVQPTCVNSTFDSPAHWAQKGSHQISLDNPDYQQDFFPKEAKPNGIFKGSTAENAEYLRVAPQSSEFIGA
structure (smiles),measurement,setting,value
FC(F)(F)c1ccc(CSc2nc(Nc3ccc(C(F)(F)F)cc3)c3ccccc3n2)cc1,Activity,MDA-MB-231 [1],Dose-dependent effect
same,Activity,MDA-MB-231 [2],Active
same,Activity,MCF7 [3],15%
same,inhibition,[4],Dose-dependent effect
same,Activity,MCF7 [5],Active
same,growth inhibition (GI),MCF7 [6],Active
same,Activity,MCF7 [7],Active
same,Activity,MDA-MB-231 [8],Active
same,inhibition,[9],Dose-dependent effect
same,pIC50,HGC-27,5.12
same,viability at 4 µM,MCF7 [10],76.2%
same,Activity,MCF7 [11],10.6%
same,inhibition,[12],Dose-dependent effect
same,Activity,MCF7 [13],75.03%
same,inhibition,[14],Dose-dependent effect
same,Activity,MDA-MB-231 [15],2.6%
same,Activity,MDA-MB-231 [16],17.32%
same,Activity,MDA-MB-231 [17],6.56%
same,Activity,MCF7 [18],Active
same,Activity,MDA-MB-231 [19],Active
same,inhibition,[20],Dose-dependent effect
same,pIC50,MCF7 [21],5.29
same,Activity,MCF7 [22],1.8%
same,Activity,MCF7 [23],Active
same,Activity,MCF7 [24],20.44%
same,Activity,MCF7 [25],Dose-dependent effect
same,Activity,MCF7 [26],14.32%
same,inhibition,[27],Dose-dependent effect
same,Activity,MDA-MB-231 [28],3.06%
same,Activity,MDA-MB-231 [29],20.7%
same,viability at 4 µM,MDA-MB-231 [30],71.1%
same,Activity,MDA-MB-231 [31],2.49%
same,viability at 6 µM,MDA-MB-231 [32],66.5%
same,Activity,MDA-MB-231 [33],28.04%
same,Activity,MDA-MB-231 [34],69.54%
same,Activity,MDA-MB-231 [35],18.77%
